One data set has as its target T1, human Granzyme B (hGzmB) (Homo sapiens, UniProt P10144).
T1 construct: purchased Froelich Lab, Northshore University Health Systems Research Institute, Evanston, Ill., USA
Put plainly: Human Granzyme B enzymatic inhibition assay (fluorogenic, kinetic). It counts as biochemical. Conditions: activity codes, Table 7; read-out: IC50 Activity Range. An outline of the steps:
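Human Granzyme B preincubated with compound for 30 min total (5 min shaking, 20 min bench, then reaction temperature). Fluorogenic substrate added and read kinetically, 25 cycles at 1-min intervals. Percent inhibition at one or two concentrations or 8–12-point 3-fold dose response from 20 uM, replicates, with IC50 by non-linear regression.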

A short description of data set [1]: Kinetic solubility determination in PBS. Format: physicochemical. Particulars: PBS 1X pH 7.4, 2.0% DMSO, 24 hour incubation at ambient temperature; for solubility at 24 h: phosphate buffered saline (PBS 1×), 21 °C, pH 7.4, aqueous buffer, kinetic from dmso stock. An outline of the steps: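 DMSO stocks were diluted into PBS (1×) pH 7.4 to 2.0% final DMSO and a maximum theoretical concentration of typically 200 μM. After 24 hour incubation at ambient temperature (20.5-21.7° C.), samples were vacuum filtered. The filtrate was quantified by chemiluminescent nitrogen detection against a nitrogen calibration curve, with background-corrected values given in μM and μg/mL.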

Setting [2] is: read-out: Solubility in aqueous PBS Buffer (1X, pH 7.4).
[3] abbreviates: read-out: Solubility in aqueous PBS Buffer (1X, pH 7.4), ug/mL.

From patent US10329324B2 (viDA Therapeutics Inc., priority 2013, dated 2019) come the findings set out here.

SMILES strings stand for the structures. Structures can show the parent of a compound that is named as a salt. Where two headings read alike, the source gives them in different places.

T1 sequence (P10144 21-247): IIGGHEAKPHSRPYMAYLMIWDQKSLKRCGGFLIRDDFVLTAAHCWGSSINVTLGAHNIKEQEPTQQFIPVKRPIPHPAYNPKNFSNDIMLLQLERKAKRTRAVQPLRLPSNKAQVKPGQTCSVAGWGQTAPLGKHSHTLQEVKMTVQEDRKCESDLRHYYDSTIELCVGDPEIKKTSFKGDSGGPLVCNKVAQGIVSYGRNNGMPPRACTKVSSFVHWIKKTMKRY

On to `CC[C@H](C)[C@H](NC(=O)CC(C)(C)C(=O)O)C(=O)NCC(=O)N1c2ccccc2C[C@H]1C(=O)NCc1nn[nH]n1` [Example A53, 2,2-Dimethyl-3-{[(1S,2S)-2-Methyl-1-({2-Oxo-2-[(2S)-2-[(2H-1,2,3,4-Tetrazol-5-Ylmethyl)Carbamoyl]-2,3-Dihydro-1H-Indol-1-Yl]Ethyl}Carbamoyl)Butyl]Carbamoyl}Propanoic Acid], for which the IC50 on human Granzyme B (hGzmB) is below 100 nM. Further, the results for the solubility at 24 h in data set [1] (setting [2]) and in data set [1] (setting [3]) were above 750 µM and above 407 µg/mL, respectively.
As for `CC[C@H](C)[C@H](NC(=O)C(C)(C)CC(=O)O)C(=O)NCC(=O)N1c2ccccc2C[C@H]1C(=O)NCc1nn[nH]n1` [Example A56, 3,3-Dimethyl-3-{[(1S,2S)-2-Methyl-1-({2-Oxo-2-[(2S)-2-[(2H-1,2,3,4-Tetrazol-5-Ylmethyl)Carbamoyl]-2,3-Dihydro-1H-Indol-1-Yl]Ethyl}Carbamoyl)Butyl]Carbamoyl}Propanoic Acid], the IC50 on human Granzyme B (hGzmB) is below 100 nM. The solubility at 24 h in data set [1] (setting [2]) is above 750 µM; in data set [1] (setting [3]) it was above 407 µg/mL.
Turning to `CC[C@H](C)[C@H](NC(=O)CCCN)C(=O)NCC(=O)N1c2ccccc2C[C@H]1C(=O)NCc1nn[nH]n1` [Example A7, (2S)-1-{2-[(2S,3S)-2-(4-Aminobutanamido-3-Methylpentanamido]Acetyl}-N-(2H-1,2,3,4-Tetrazol-5-Ylmethyl)-2,3-Dihydro-1H-Indole-2-Carboxamide Hydrochloride], on human Granzyme B (hGzmB), the IC50 is 1000 to 10000 nM. The solubility at 24 h in data set [1] (setting [2]) stood at 124 µM; in data set [1] (setting [3]) it was 67 µg/mL.
On the same counts, the results for `O=C(Cc1ccccc1)N[C@H](C(=O)NCC(=O)N1c2ccccc2C[C@H]1C(=O)NCc1nn[nH]n1)C1CCCC1` [Example A12, (2S)-1-{2-[(2S)-2-Cyclopentyl-2-(2-Phenylacetamido)Acetamido]Acetyl}-N-(2H-1,2,3,4-Tetrazol-5-Ylmethyl)-2,3-Dihydro-1H-Indole-2-Carboxamide] are 100 to 1000 nM, 594 µM and 323 µg/mL.
On the same counts, the results for `CC[C@H](C)[C@H](NC(=O)C1CC1C(=O)O)C(=O)NCC(=O)N1c2ccccc2C[C@H]1C(=O)NCc1nn[nH]n1` (single isomer, unassigned) [Example A26-1] are below 100 nM, above 750 µM and above 395 µg/mL.
Turning to `CC[C@H](C)[C@H](NC(=O)C1CCCCC1C(=O)O)C(=O)NCC(=O)N1c2ccccc2C[C@H]1C(=O)NCc1nn[nH]n1` (single isomer, unassigned) [Example A23-2], the IC50 on human Granzyme B (hGzmB) was below 100 nM. In data set [1], the “Solubility in aqueous PBS Buffer (1X, pH 7.4), uM” value (from here on “Solubility … uM”) was determined as 679 uM and the “Solubility in aqueous PBS Buffer (1X, pH 7.4), ug/mL” value (“Solubility … ug/mL” below) is recorded as 386 ug/mL.
As to `CC[C@H](C)[C@H](NC(=O)c1ccccc1C(=O)O)C(=O)NCC(=O)N1c2ccccc2C[C@H]1C(=O)NCc1nn[nH]n1` [Example A25, 2-{[(1S,2S)-2-Methyl-1-({2-Oxo-2-[(2S)-2-[(2H-1,2,3,4-Tetrazol-5-Ylmethyl)Carbamoyl]-2,3-Dihydro-1H-Indol-1-Yl]Ethyl}Carbamoyl)Butyl]Carbamoyl}Benzoic Acid], the IC50 on human Granzyme B (hGzmB) was below 100 nM. In addition, the solubility at 24 h in data set [1] (setting [2]) stood at 696 µM; in data set [1] (setting [3]) it was 462 µg/mL.
On the same counts, the results for `CC[C@H](C)[C@H](NC(=O)C1CCCCC1C(=O)O)C(=O)NCC(=O)N1c2ccccc2C[C@H]1C(=O)NCc1nn[nH]n1` (single isomer, unassigned) [Example A20-1] are below 100 nM, 535 µM and 358 µg/mL.
Regarding `CC[C@H](C)[C@H](NC(=O)Cc1ccccc1)C(=O)NCC(=O)N1c2cc(NC(C)=O)ccc2C[C@H]1C(=O)NCc1nn[nH]n1` [Example C27, (2S)-6-Acetamido-1-{2-[(2S,3S)-3-Methyl-2-(2-Phenylacetamido)Pentanamido]Acetyl}-N-(2H-1,2,3,4-Tetrazol-5-Ylmethyl)-2,3-Dihydro-1H-Indole-2-Carboxamide], at human Granzyme B (hGzmB), the IC50 was in the range of 100 to 1000 nM. Further, the solubility at 24 h in data set [1] (setting [2]) was above 750 µM; in data set [1] (setting [3]), above 442 µg/mL.
On the same counts, the results for `O=C(O)CCC(=O)N[C@H](C(=O)NCC(=O)N1c2ccccc2C[C@H]1C(=O)NCc1nn[nH]n1)c1cccs1` [Example C24, 3-{[(R)-({2-Oxo-2-[(2S)-2-[(2H-1,2,3,4-Tetrazol-5-Ylmethyl)Carbamoyl]-2,3-Dihydro-1H-Indol-1-Yl]Ethyl}Carbamoyl)(Thiophen-2-Yl)Methyl]Carbamoyl}Propanoic Acid] are 100 to 1000 nM, above 750 µM and above 405 µg/mL.
As for `CC[C@H](C)[C@H](NC(=O)CC(C)(C)CC(=O)O)C(=O)NCC(=O)N1c2ccccc2C[C@H]1C(=O)NCc1nn[nH]n1` [Example A18, 3,3-Dimethyl-4-{[(1S,2S)-2-Methyl-1-({2-Oxo-2-[(2S)-2-[(2H-1,2,3,4-Tetrazol-5-Ylmethyl)Carbamoyl]-2,3-Dihydro-1H-Indol-1-Yl]Ethyl}Carbamoyl)Butyl]Carbamoyl}Butanoic Acid], the IC50 on human Granzyme B (hGzmB) is below 100 nM. The solubility at 24 h in data set [1] (setting [2]) turned out to be 679 µM; in data set [1] (setting [3]), 447 µg/mL.
For `CC[C@H](C)[C@H](NC(=O)Cc1cccnc1)C(=O)NCC(=O)N1c2ccccc2C[C@H]1C(=O)NCc1nn[nH]n1` [Example A3, (2S)-1-{2-[(2S,3S)-3-Methyl-2-[2-(Pyridin-3-Yl)Acetamido]Pentanamido]Acetyl}-N-(2H-1,2,3,4-Tetrazol-5-Ylmethyl)-2,3-Dihydro-1H-Indole-2-Carboxamide] the same measures were 100 to 1000 nM, 139 µM and 74 µg/mL.
Regarding `CC[C@H](C)[C@H](NC(=O)C1CC=CCC1C(=O)O)C(=O)NCC(=O)N1c2ccccc2C[C@H]1C(=O)NCc1nn[nH]n1` (single isomer, unassigned) [Example A21-2], the IC50 at human Granzyme B (hGzmB) was below 100 nM. Further, in data set [1], the “Solubility … uM” value is above 750 uM and the “Solubility … ug/mL” value was above 425 ug/mL.
`CC[C@H](C)[C@H](NC(=O)C(C)CC(=O)O)C(=O)NCC(=O)N1c2ccccc2C[C@H]1C(=O)NCc1nn[nH]n1` (single isomer, unassigned) [Example A30-1]: the IC50 on human Granzyme B (hGzmB) was below 100 nM. For the same compound, the solubility at 24 h in data set [1] (setting [2]) was above 750 µM; in data set [1] (setting [3]), above 396 µg/mL.
As to `CC[C@H](C)[C@H](NC(=O)C1CC=CCC1C(=O)O)C(=O)NCC(=O)N1c2ccccc2C[C@H]1C(=O)NCc1nn[nH]n1` (single isomer, unassigned) [Example A21-1], the IC50 on human Granzyme B (hGzmB) is below 100 nM. In addition, the solubility at 24 h in data set [1] (setting [2]) is above 750 µM; in data set [1] (setting [3]) it was above 425 µg/mL.
On the same counts, the results for `CC[C@H](C)[C@H](NC(=O)Cc1ccccc1)C(=O)N[C@H](C)C(=O)N1c2ccccc2C[C@H]1C(=O)NCc1nn[nH]n1` [Example C12, (2S)-1-[(2R)-2-[(2S,3S)-3-Methyl-2-(2-Phenylacetamido)Pentanamido]Propanoyl]-N-(2H-1,2,3,4-Tetrazol-5-Ylmethyl)-2,3-Dihydro-1H-Indole-2-Carboxamide] are above 10000 nM, 112 µM and 61 µg/mL.
As to `CC[C@H](C)[C@H](NC(=O)C1CC1C(=O)O)C(=O)NCC(=O)N1c2ccccc2C[C@H]1C(=O)NCc1nn[nH]n1` (single isomer, unassigned) [Example A26-2], the IC50 on human Granzyme B (hGzmB) is below 100 nM. For the same compound, in data set [1], the “Solubility … uM” value stood at 685 uM and the “Solubility … ug/mL” value stood at 361 ug/mL.
On the same counts, the results for `CC[C@H](C)[C@H](NC(=O)C1CCCCC1C(=O)O)C(=O)NCC(=O)N1c2ccccc2C[C@H]1C(=O)NCc1nn[nH]n1` (single isomer, unassigned) [Example A20-2] are below 100 nM, 641 uM and 429 ug/mL.
Regarding `CC[C@H](C)[C@H](NC(=O)Cc1ccccc1)C(=O)N[C@@H](C)C(=O)N1c2ccccc2C[C@H]1C(=O)NCc1nn[nH]n1` [Example C11, (2S)-1-[(2S)-2-[(2S,3S)-3-Methyl-2-(2-Phenylacetamido)Pentanamido]Propanoyl]-N-(2H-1,2,3,4-Tetrazol-5-Ylmethyl)-2,3-Dihydro-1H-Indole-2-Carboxamide], the IC50 on human Granzyme B (hGzmB) fell in the range of 1000 to 10000 nM. The solubility at 24 h in data set [1] (setting [2]) was determined as 125 µM; in data set [1] (setting [3]) it was 68 µg/mL.
As to `CC[C@H](C)[C@H](NC(=O)Cc1ccccc1)C(=O)NCC(=O)N1c2ccccc2C[C@H]1C(=O)NCc1nn[nH]n1` [Example A1, (2S)-1-{2-[(2S,3S)-3-Methyl-2-(2-Phenylacetamido)Pentanamido]Acetyl}-N-(2H-1,2,3,4-Tetrazol-5-Ylmethyl)-2,3-Dihydro-1H-Indole-2-Carboxamide], on human Granzyme B (hGzmB), the IC50 fell in the range of 100 to 1000 nM. Further, the results for the solubility at 24 h in data set [1] (setting [2]) and in data set [1] (setting [3]) were 144 µM and 77 µg/mL, respectively.
Turning to `CC(C)[C@H](NC(=O)Cc1ccccc1)C(=O)NCC(=O)N1c2ccccc2C[C@H]1C(=O)NCc1nn[nH]n1` [Example C1, (2S)-1-{2-[(2S)-3-Methyl-2-(2-Phenylacetamido)Butanamido]Acetyl}-N-(2H-1,2,3,4-Tetrazol-5-Ylmethyl)-2,3-Dihydro-1H-Indole-2-Carboxamide], the concentration for half-maximal inhibition (IC50) at human Granzyme B (hGzmB) lay within 100 to 1000 nM. Further, the solubility at 24 h was above 150 µM in data set [1] (setting [2]) and above 78 µg/mL in data set [1] (setting [3]).
